In patent US7879853B2, “4,6-disubstituted pyrimidines and their use as protein kinase inhibitors” (Bayer Schering Pharma AG, priority 2004, dated 2011):
pIC50: −log10 of the molar value.

How the values were obtained:
[1] = molecular target: T1, Akt1 (full-length Akt1, active) (Homo sapiens, UniProt P31749); assay: Biochemical Akt1 (active) assay (full-length Akt1), flashplate, Crosstide; details: Crosstide substrate, 100 nM ATP, 60 minutes at 30° C.; read-out: Akt1 inhibition (full-length Akt1, active): IC50
T1 construct: recombinant full-length human Akt1, containing N-terminal His6 tag; His6 (N); GST (alternative statement of the assay paragraph) (N); purchased Upstate, UK #14-276; host or cells: baculovirus infected Sf21 insect cells
T1 sequence (P31749 whole entry): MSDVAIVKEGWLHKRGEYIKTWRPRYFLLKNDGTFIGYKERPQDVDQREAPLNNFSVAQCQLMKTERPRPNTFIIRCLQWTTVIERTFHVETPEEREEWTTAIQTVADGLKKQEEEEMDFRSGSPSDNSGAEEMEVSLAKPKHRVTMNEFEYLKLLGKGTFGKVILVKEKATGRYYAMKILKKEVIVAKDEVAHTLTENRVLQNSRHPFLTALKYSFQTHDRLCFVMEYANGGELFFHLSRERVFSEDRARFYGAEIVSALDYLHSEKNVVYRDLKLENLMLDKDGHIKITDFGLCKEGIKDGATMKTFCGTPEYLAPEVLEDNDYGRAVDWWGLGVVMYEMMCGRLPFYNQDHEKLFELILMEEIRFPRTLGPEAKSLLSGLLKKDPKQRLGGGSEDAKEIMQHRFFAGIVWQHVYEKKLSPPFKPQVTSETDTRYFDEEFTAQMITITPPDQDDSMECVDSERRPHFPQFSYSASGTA
Text: For the biochemical Akt1 assay recombinant full-length human Akt1, containing N-terminal His6 tag was cloned and expressed in baculovirus infected Sf21 insect cells. Akt1 is activated with GST-MAPKAP-K2 and PDK1, and repurified on Ni2+/NTA-agrose and glutathioneagarose (Upstate, UK; #14-276).
In order to study the inhibition of Akt1 (full-length version) according to the invention, a flashplate-based assay has been developed.
The full-length Akt1 assay is a biochemical assay using Akt1 N-terminally fused to GST and co-expressed with PDK1 in insect cells. The Akt1 assay is run in 96 well plates by incubating 500 ng/well GST-Akt1, 1 μM Crosstide (N-terminally biotinylated synthetic peptide (KGSGSGRPRTSSFAEG) Upstate, #12-385) as substrate, 10 μl of test compound (test compounds were dissolved as 10 mM solutions in dimethylsulfoxide (DMSO) and subsequently diluted) and 100 nM ATP (including ^33P-ATP) in 100 μl of reaction buffer (50 mM HEPES, pH7.5; 3 mM MgCl2; 3 mM MnCl2; 3 μM Na-Orthovanadat; 1 mM DTT; 1 μg/ml PEG8000) for 60 minutes at 30° C. in 96 well microtiter plates. The reactions are terminated by adding 100 μl stopping buffer (5M NaCl, 35 mM EDTA pH 8,0) for 5 minutes. 190 μl of the reaction mixture are transferred into streptavidin-coated Flashplates (Perkin Elmer, #SMP-103) and incubated for further 30 minutes at room temperature. The plates are washed 3 times by using washing buffer (0.9% NaCl). Relying on the incorporation of ^33P into the peptide substrate crosstide, the detection is based on the specific binding of the biotinylated peptide to the streptavidin-coated surface of scintillator-coated flash plates (NEN, USA; #SMP-103). This phosphorylation is measured by counting the plate for 60 sec. using a plate reader (Wallac Microbeta; Perkin Elmer, USA). The analysis of the data is performed using a biostatistical program (GraphPad Prism, USA).

GST-ΔPH-Akt1 = molecular target: T2, GST-ΔPH-Akt1 (Homo sapiens, UniProt P31749); assay: Biochemical ΔPH Akt1 assay (flashplate, 33P-ATP, histone 2B); details: GST-ΔPH-Akt1, histone 2B substrate, 100 nM ATP, 80 minutes at 30° C.; read-out: Akt inhibition: IC50 (inhibition of deltaPHAkt1)
T2 construct: named GST-deltaPH-Akt1; 107480aa; cloned in the pAcG1 vector; made in house; host or cells: SF9 insect cells (pAcG1 vector), co-expressed with PDK1
T2 sequence (P31749 107-480 limits assumed, stated change not applied): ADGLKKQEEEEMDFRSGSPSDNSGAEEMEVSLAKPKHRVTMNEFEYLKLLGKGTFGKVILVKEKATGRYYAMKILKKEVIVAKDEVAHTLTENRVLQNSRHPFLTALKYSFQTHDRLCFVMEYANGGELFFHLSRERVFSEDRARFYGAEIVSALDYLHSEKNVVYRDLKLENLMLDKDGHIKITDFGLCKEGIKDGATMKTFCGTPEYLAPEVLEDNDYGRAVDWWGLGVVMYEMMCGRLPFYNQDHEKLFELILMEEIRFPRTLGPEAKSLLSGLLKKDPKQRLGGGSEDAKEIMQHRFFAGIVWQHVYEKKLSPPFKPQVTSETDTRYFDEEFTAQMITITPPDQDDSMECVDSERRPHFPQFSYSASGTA
Text: For the biochemical assay ΔPHAkt1 was used devoid of its PH domain as a GST fusion protein (named GST-deltaPH-Akt1; 107480aa; cloned in the pAcG1 vector (BD Biosciences Pharmingen)), co-expressed with PDK1 in SF9 insect cells. The protein was purified using glutathion-affinity chromatography by standard protocols.
In order to study the inhibition of Akt according to the invention, a flashplate-based assay has been developed.
The Akt1 assay is a biochemical assay using Akt1 devoid of its PH domain and co-expressed with PDK1 in insect cells. The GST-ΔPH-Akt1 assay is run in 96 well plates by incubating 100 ng/well GST-ΔPH-Akt1, 100 ng/well histone 2B (Roche, #223514) as substrate, 10 μl of compound of invention (test compounds were dissolved as 10 mM solutions in dimethylsulfoxide (DMSO) and subsequently diluted) and 100 nM ATP (including ^33P-ATP) in 100 μl of reaction buffer ([…], pH7.5; 3 mM MgCl2; 3 mM MnCl2; 3 μM Na-Orthovanadat; 1 mM DTT; 1 μg/ml PEG8000) for 80 minutes at 30° C. The reactions are terminated by adding 100 μl stopping buffer (2% H3PO4 for 5 minutes) and are washed 3 times by using washing buffer (0.9% NaCl). Relying on the incorporation of ^33P into the protein substrate histone 2B, the detection is based on the adhesion of the phosphorylated protein to the surface of scintillator-coated flash plates (NEN, USA; #SMP-200). This phosphorylation is measured by counting the plate for 60 sec. using a plate reader (Wallac Microbeta; Perkin Elmer, USA). The analysis of the data is performed using a biostatistical program (GraphPad Prism, USA).

[2] = molecular target: T3, Akt1 (full-length Akt1, inactive) (Homo sapiens, UniProt P31749); assay: Biochemical Akt1 (inactive) assay (full-length Akt1), IMAP, PDK1-dependent activation; details: activation by PDK1 with PIP3 vesicles, 50 μM ATP, 60 min. at room temperature; read-out: Inhibition of Akt1 activation (full-length Akt1, inactive): IC50
T3 construct: recombinant full-length human Akt1 a containing N-terminal His6 tag; His6 (N); purchased Upstate, UK #14-279; host or cells: baculovirus infected Sf21 insect cells
T3 sequence (P31749 whole entry): as the sequence (P31749 whole entry) above
Method: The enzyme is purified using Ni2+/NTA-agarose (Upstate, UK; #14-279).
The enzyme is purified using Ni2+/NTA-agarose.
PDK1-dependent activation and subsequent enzymatic activity of Akt1: Activity of purified human Akt1 is routinely measured in an assay in which the enzyme is first activated by PDK1 in the presence of phosphatidylinositol-3,4,5-triphosphate (PIP3). Once activated, Akt1-dependent phosphorylation of a fluorescence labelled peptide substrate is measured by fluorescence polarisation using the IMAP technology (Molecular Devices).
The phospholipids are prepared as follows: 5 mg DOPC/DOPS are solved in 200 μl 10 mM Tris (pH 7.4) and 300 μg PIP3 are resuspended in 950 μl 10 mM Tris (pH 7.4) by pipetting. 950 μl solved PIP3 are mixed with 50 μl solved DOPC/DOPS and incubated for 2 h at a temperature below 20° C. Then the mixture is subjected to sonification for 30 min. at max. power until a translucent phopholipid vesicle preparation is obtained. Aliquots of the vesicle suspension are frozen at −80° C. until needed, likewise the solved DOPC/DOPS.
Assays are performed in 384-well plates. Incubations are carried out for 60 min. at room temperature. The reaction buffer mixture contains in a final volume of 25 μl: 10 mM Tris pH 7.4, 10 mM MgCl2. 1 mM DTT, and 0,1 mg/ml BSA. In contrast the activation buffer contains: 50 ng/well Akt1, 20 ng/well PDK1, 1.25 μM peptide substrat, 50 μM ATP, and phospholipid vesicles (1:20). Test compounds are added from stock solutions in DMSO before activation of Akt1 by PDK1. After the incubation the beads (IMAP binding reagent; Molecular Devices; 1:167) are added and the fluorescence polarization is measured (excitation 485 nm, emission 530 nm). The analysis of the data is performed using a biostatistical program.

MCF7 cells = assay: Cellular proliferation/cytotoxicity assay (Alamar Blue), MCF7; type: cell-based; details: Homo sapiens; MCF7, 48 hours, Alamar Blue (Resazurin); read-out: Anti-proliferative/cytotoxic activity: IC50 MCF7
Method: (§1) The anti-proliferative activity of the compounds as described herein, is evaluated using MCF7 and MDA-MB-468 (ATCC HTB-22 and HTB-132) cell lines and the Alamar Blue (Resazurin) cell viability assay (O'Brien et al. Eur J Biochem 267, 5421-5426, 2000). Resazurin is reduced to the fluorescent rescrufin by cellular dehydrogenase activity, correlating with viable, proliferating cells. Test compounds are dissolved as 10 mM solutions in DMSO and subsequently diluted. MCF7 or […] cells were seeded into 96 well flat bottom plates at a density of 10000 cells/well (MCF7) or 5000 cells/well (MDA-MB-468) in a volume of 200 μl/well. 24 hours after seeding, 1 μl each of the compound dilutions are added into each well of the 96 well plates. Each compound dilution is tested as at least as duplicates. Wells containing untreated control cells were filled with 200 μl DMEM containing 0.5% v:v DMSO. The cells are then incubated with the substances for 48 hours at 37° C. in a humidified atmosphere containing 5% carbon dioxide. To determine cell viability, 20 μl of a Resazurin solution (Sigma; 90 mg/l) are added. After 4 hours incubation at 37° C. the fluorescence is measured at an extinction of 544 nm and an emission of 590 nm (Wallac Victor2; Perkin Elmer, USA). For the calculation of the cell viability the emission value from untreated cells is set as 100% viability and the emission rates of treated cells are set in relation to the values of untreated cells. Viabilities are expressed as % values. The corresponding IC50 values of the compounds for cytotoxic activity are determined from the concentration-effect curves by means of non-linear regression. The analysis of the data is performed using a biostatistical program (GraphPad Prism, USA).

MDA-MB-468 cells = assay: Cellular proliferation/cytotoxicity assay (Alamar Blue), MDA-MB-468; type: cell-based; details: Homo sapiens; MDA-MB-468, 48 hours, Alamar Blue (Resazurin); read-out: Anti-proliferative/cytotoxic activity: IC50 MDA468
Method: as §1

Compound	pIC50 [1]	pIC50 (GST-ΔPH-Akt1)	pIC50 [2]	melting point [°C]	pIC50 (MCF7 cells)	pIC50 (MDA-MB-468 cells)
NCc1ccc(C(=O)Nc2cccc(Nc3cc(-c4cccc5c4oc4ccccc45)ncn3)c2)cc1.O=C(O)C(F)(F)F [Compound 57, 4-Aminomethyl-N-[3-(6-dibenzofuran-4-yl-pyrimidin-4-ylamino)-phenyl]-benzamid trifluoroacetate]	≥ 5.76	≥ 5.30	≥ 5.36	114	–	–
NCc1cccc(C(=O)Nc2ccc(Nc3cc(-c4cccc5c4oc4ccccc45)ncn3)cc2)n1 [Compound 73, 6-Aminomethyl-pyridin-2-carbonsäure-[4-(6-dibenzofuran-4-yl-pyrimidin-4-ylamino)-phenyl]-amide]	≥ 5.76	–	–	183 to 186	–	–
NCc1ccc(C(=O)Nc2ccc(Nc3cc(-c4cccc5c4oc4ccccc45)ncn3)cc2)cc1.O=C(O)C(F)(F)F [Compound 49, 4-Aminomethyl-N-[4-(6-dibenzofuran-4-yl-pyrimidin-4-ylamino)-phenyl]-benzamide trifluoroacetate]	≥ 5.76	–	≥ 5.36	155 to 165	≥ 4.78	≥ 5.22
